Measurements: PubChem BioAssay (NCI)
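GI50 = concentration required for 50% inhibition of growth. TGI: total growth inhibition.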

Experiments:
Test in all cases: NCI tumour cell line growth inhibition, 384-well format; in the data active = GI50 below about 0.43 µM; inactive = the rest
[1] = test system: 786-0 renal
[2] = test system: A498 renal
[3] = test system: A549 NSCLC
[4] = test system: ACHN renal
[5] = test system: BT-549 breast
[6] = test system: CCRF-CEM leukemia
[7] = test system: COLO 205 colon
[8] = test system: EKVX NSCLC
[9] = test system: HCC-2998 colon
[10] = test system: HL-60(TB) leukemia
[11] = test system: HOP-62 NSCLC
[12] = test system: HOP-92 NSCLC
[13] = test system: HS 578T breast
[14] = test system: IGROV1 ovarian
[15] = test system: K-562 leukemia
[16] = test system: KM12 colon
[17] = test system: LOX IMVI melanoma
[18] = test system: M14 melanoma
[19] = test system: MALME-3M melanoma
[20] = test system: MCF7 breast
[21] = test system: MDA-MB-231 breast
[22] = test system: MDA-MB-468 breast
[23] = test system: MOLT-4 leukemia
[24] = test system: NCI-H226 lung
[25] = test system: NCI-H23 lung
[26] = test system: NCI-H322M lung
[27] = test system: NCI-H460 NSCLC
[28] = test system: NCI-H522 lung
[29] = test system: OVCAR-3 ovarian
[30] = test system: OVCAR-4 ovarian
[31] = test system: OVCAR-5 ovarian
[32] = test system: OVCAR-8 ovarian
[33] = test system: PC-3 prostate
[34] = test system: RXF 393 renal
[35] = test system: SF-268 CNS
[36] = test system: SK-MEL-2 melanoma
[37] = test system: SK-MEL-28 melanoma
[38] = test system: SK-OV-3 ovarian
[39] = test system: SN12C renal
[40] = test system: SNB-19 CNS
[41] = test system: SNB-75 CNS
[42] = test system: SR leukemia
[43] = test system: SW-620 colon
[44] = test system: TK-10 renal
[45] = test system: UACC-257 melanoma
[46] = test system: UACC-62 melanoma
[47] = test system: UO-31 renal

N=C(N)c1ccc2nc(-c3cc(CC(=O)N[C@@H](CC(=O)O)C(=O)O)cc(-c4cc(S(N)(=O)=O)ccc4O)c3O)[nH]c2c1
> 100 µM: TGI [1] | TGI [2] | TGI [3] | TGI [4] | TGI [5] | TGI [6] | TGI [7] | TGI [8] | TGI [9] | TGI [10] | TGI [11] | TGI [12] | TGI [13] | TGI [14] | TGI [15] | TGI [16] | TGI [17] | TGI [18] | TGI [19] | TGI [20] | TGI [21] | TGI [22] | TGI [23] | TGI [24] | TGI [25] | TGI [26] | TGI [27] | TGI [28] | TGI [29] | TGI [30] | TGI [31] | TGI [32] | TGI [33] | TGI [34] | TGI [35] | TGI [36] | TGI [37] | TGI [38] | TGI [39] | TGI [40] | TGI [41] | TGI [42] | TGI [43] | TGI [44] | TGI [45] | TGI [46] | TGI [47]
inactive: GI50 [1] > 100 µM | GI50 [2] > 100 µM | GI50 [3] > 100 µM | GI50 [4] > 100 µM | GI50 [5] > 100 µM | GI50 [6] > 100 µM | GI50 [7] > 100 µM | GI50 [8] > 100 µM | GI50 [9] > 100 µM | GI50 [10] > 100 µM | GI50 [11] > 100 µM | GI50 [12] > 100 µM | GI50 [13] > 100 µM | GI50 [14] > 100 µM | GI50 [15] > 100 µM | GI50 [16] > 100 µM | GI50 [17] > 100 µM | GI50 [18] > 100 µM | GI50 [19] > 100 µM | GI50 [20] > 71.5 µM | GI50 [21] > 100 µM | GI50 [22] > 100 µM | GI50 [23] > 100 µM | GI50 [24] > 100 µM | GI50 [25] > 100 µM | GI50 [26] > 100 µM | GI50 [27] > 100 µM | GI50 [28] > 100 µM | GI50 [29] > 100 µM | GI50 [30] > 100 µM | GI50 [31] > 100 µM | GI50 [32] > 100 µM | GI50 [33] > 100 µM | GI50 [34] > 100 µM | GI50 [35] > 100 µM | GI50 [36] > 100 µM | GI50 [37] > 100 µM | GI50 [38] > 100 µM | GI50 [39] > 100 µM | GI50 [40] > 100 µM | GI50 [41] > 100 µM | GI50 [42] > 100 µM | GI50 [43] > 100 µM | GI50 [44] > 100 µM | GI50 [45] > 100 µM | GI50 [46] > 100 µM | GI50 [47] > 100 µM
